Laboratory results from patent EP0720988A1, “Pseudopeptides containing trifluoromethyl substituted 2-azabicyclooctane” (BAYER AG, priority 1995, dated 1996).
Where a name gives a salt, the structure may show the parent alone. Read-outs that look alike come from different tables or passages of the source.

Experiments:
HIV-1-Protease [1] = target: T1, HIV-1-Protease (Human immunodeficiency virus type 1 group M subtype B, UniProt P04585); assay: HIV-specific protease enzyme assay (purified HIV protease, synthetic peptide substrate, RP-HPLC analysis of cleavage products); assay type: biochemical; conditions: synthetic peptide imitating a Gag precursor cleavage site
T1 construct: Gereinigte HIV-Protease wurde mit synthetischem Peptid

HIV-1-Protease [2] = target: T1, HIV-1-Protease; assay: as above; assay type: biochemical; conditions: synthetic peptide imitating a Gag precursor cleavage site, 50% inhibition of protease activity
From the text: Es wurde überraschend gefunden, daß die Verbindungen der allgemeinen Formel (I) eine außerordentlich starke Wirkung gegen Retroviren besitzen. Dies wird mit einem HIV-spezifischen Protease-Enzymtest belegt.
Die Ergebnisse der unten aufgeführten Beispiele wurden nach dem in den folgenden Literaturangaben [vgl. Hansen, J., Billich, S., Schulze, T., Sukrow, S. and Mölling, K. (1988), EMBO Journal, Vol, 7, No. 6, pp. 1785 - 1791] beschriebenen HIV-Testsystem ermittelt: Gereinigte HIV-Protease wurde mit synthetischem Peptid, das eine Schnittstelle im Gag-Precursor-Protein imitiert und eine in vivo-Spaltstelle der HIV-Protease darstellt, inkubiert. Die entstandenen Spaltprodukte des synthetischen Peptids wurden über Reverse Phase High Performance Liquid Chromatography (RP-HPLC) analysiert. Die angegebenen IC50-Werte beziehen sich auf die Substanzkonzentration, die unter den oben aufgeführten Testbedingungen eine 50%ige Hemmung der Protease-Aktivität bewirkt.

HIV = HIV infection in cell culture (PBL), suppression of virus-induced syncytia formation; assay type: cell-based; conditions: 50% suppression of virus-induced syncytia, read between day 3 and 6 after infection
Experimental: HIV-Infektion in Zellkultur
Der HIV-Test wurde mit geringen Modifikationen nach der Methode von Pauwels et al. [vgl. Journal of Virological Methods 20, (1988), 309-321] durchgeführt.
Normale menschliche Blutlymphozyten (PBL's) wurden über Ficoll-Hypaque angereichert und im RPMI 1640, 20% fötales Kälberserum mit Phytohaemagglutinin (90 µg/ml) und Interleukin-2 (40 U/ml) stimuliert. Zur Infektion mit dem in-fektiösen HIV wurden PBL's pelletiert und das Zellpellet wurde anschließend in 1 ml HIV-Virusadsorptionslösung suspendiert und 1 Stunde bei 37°C inkubiert.
Die Virusadsorptionslösung wurde zentrifugiert und das infizierte Zellpellet in Wachstumsmedium aufgenommen, so daß 1 x 10^5 Zellen pro ml eingestellt waren. Die derart infizierten Zellen wurden zu 1 x 10^4 Zellen/Napf in die Näpfe von 96er Mikrotiterplatten pipettiert.
Die erste vertikale Reihe der Mikrotiterplatte enthielt nur Wachstumsmedium und Zellen, die nicht infiziert, aber ansonsten genauso wie oben beschrieben, behandelt worden waren (Zellkontrolle). Die zweite vertikale Reihe der Mikrotiterplatte erhielt nur HIV-infizierte Zellen (Viruskontrolle) in Wachstumsmedium. Die übrigen Näpfe enthielten die erfindungsgemäßen Verbindungen in unterschiedlichen Konzentrationen, ausgehend von den Näpfen der 3. vertikalen Reihe der Mikrotiterplatte, von der die Prüfsubstanzen in 2er Schritten 2^10fach verdünnt wurden.
Die Testansätze wurden so lange bei 37°C inkubiert, bis in der unbehandelten Viruskontrolle die für das HIV typische Syncytienbildung auftrat (zwischen Tag 3 und 6 nach Infektion), die dann mikroskopisch ausgewertet wurde. In der unbehandelten Viruskontrolle resultierten unter diesen Testbedingungen etwa 20 Syncytien, währen die unbehandelte Zellkontrolle keine Syncytien aufwies.
Die IC50-Werte wurden als die Konzentration der behandelten und infizierten Zellen ermittelt, bei der 50% (ca. 10 Syncytien) der virusinduzierten Syncytien durch die Behandlung mit der erfindungsgemäßen Verbindung unterdrückt waren.

[3] = HIV-1-Protease-Inhibition IC50, purified HIV protease
[4] = read-out: PBL IC50, HIV-infected normal human blood lymphocytes (PBL's)
[5] = Human immunodeficiency virus 1, Lymphocyte, 72 h, read-out: PBL IC50, HIV-infected normal human blood lymphocytes (PBL's)
[6] = purified HIV protease, read-out: HIV-1-Protease-Inhibition IC50

| SMILES | HIV-1-Protease-Inhibition IC95 (HIV-1-Protease [1]) | also measured |
| --- | --- | --- |
| NC(=O)C[C@H](NC(=O)c1cnc2ccccc2n1)C(=O)N[C@@H](Cc1ccccc1)[C@H](O)CN1[C@H](C(F)(F)F)C[C@@H]2CCC[C@@H]21 [Beispiel 1] | 1,9 x 10^-10 Mol/l | IC50 (HIV-1-Protease [2]; [3]): 0.018 nM; IC50 (HIV; [4]): 81.7 nM |
| NC(=O)C[C@H](NC(=O)c1cnc2ccccc2n1)C(=O)N[C@@H](Cc1ccccc1)[C@H](O)CN1[C@H](C(F)(F)F)C[C@@H]2CCC[C@@H]21 [Beispiel 2] | 3,6 x 10^-11 Mol/l | IC50 (HIV-1-Protease [2]; read-out: HIV-1-Protease-Inhibition IC50, purified HIV protease): 0.017 nM; IC50 (HIV; [4]): 38.5 nM |
| NC(=O)C[C@H](NC(=O)c1ccc2ccccc2n1)C(=O)N[C@@H](Cc1ccccc1)[C@H](O)CN1[C@H](C(F)(F)F)C[C@@H]2CCC[C@@H]21 [Beispiel 3, (2R,3S)-3-(Chinolin-2-yl-L-asparaginyl)-amino-1-[(S,S,S)-3-trifluormethyl-2-azabicyclo[3.3.0]octan-2-yl}-2-hydroxy-4-phenyl-butan] | 2,2 x 10^-8 Mol/l | IC50 (HIV-1-Protease [2]; [3]): 0.24 nM; IC50 (HIV; [5]): 35 nM |
| NC(=O)C[C@H](NC(=O)c1ccc2ccccc2n1)C(=O)N[C@@H](Cc1ccccc1)[C@H](O)CN1[C@H](C(F)(F)F)C[C@@H]2CCC[C@@H]21 [Beispiel 4, (2R,3S)-3-(Chinolin-2-yl-L-asparaginyl)-amino-1-[(S,S,S)-3-trifluormethyl-2-azabicylco[3.3.0]octan-2-yl}-2-hydroxy-4-phenyl-butan Hydrochlorid] | 3,3 x 10^-8 Mol/l | IC50 (HIV-1-Protease [2]; [3]): 0.6 nM; IC50 (HIV; [4]): 22.5 nM |
| Cc1cc2ncc(C(=O)N[C@@H](CC(N)=O)C(=O)N[C@@H](Cc3ccccc3)[C@H](O)CN3[C@H](C(F)(F)F)C[C@@H]4CCC[C@@H]43)nc2cc1C [Beispiel 8] | 3,2 x 10^-6 Mol/l |  |
| Cc1cc2ncc(C(=O)N[C@@H](CC(N)=O)C(=O)N[C@@H](Cc3ccccc3)[C@H](O)CN3[C@H](C(F)(F)F)C[C@@H]4CCC[C@@H]43)nc2cc1C [Beispiel 9] | 2,6 x 10^-9 Mol/l |  |
| Cc1ccc2nc(C(=O)N[C@@H](CC(N)=O)C(=O)N[C@@H](Cc3ccccc3)[C@H](O)CN3[C@H](C(F)(F)F)C[C@@H]4CCC[C@@H]43)ccc2c1 [Beispiel 10] | 3,1 x 10^-7 Mol/l |  |
| Cc1ccc2nc(C(=O)N[C@@H](CC(N)=O)C(=O)N[C@@H](Cc3ccccc3)[C@H](O)CN3[C@H](C(F)(F)F)C[C@@H]4CCC[C@@H]43)ccc2c1 [Beispiel 11] | 3,6 x 10^-11 Mol/l |  |
| NC(=O)C[C@H](NC(=O)c1ccc2cc(Cl)ccc2n1)C(=O)N[C@@H](Cc1ccccc1)[C@H](O)CN1[C@H](C(F)(F)F)C[C@@H]2CCC[C@@H]21 [Beispiel 12] | 3,7 x 10^-9 Mol/l |  |
| NC(=O)C[C@H](NC(=O)c1ccc2cc(Cl)ccc2n1)C(=O)N[C@@H](Cc1ccccc1)[C@H](O)CN1[C@H](C(F)(F)F)C[C@@H]2CCC[C@@H]21 [Beispiel 13] | 2,5 x 10^-10 Mol/l |  |
| NC(=O)C[C@H](NC(=O)COc1ccccc1-c1ccccc1)C(=O)N[C@@H](Cc1ccccc1)[C@H](O)CN1[C@H](C(F)(F)F)C[C@@H]2CCC[C@@H]21 [Beispiel 14] | 1,8 x 10^-7 Mol/l | IC50 (HIV-1-Protease [2]; [6]): 3.5 nM; IC50 (HIV; [5]): 600 nM |
| NC(=O)C[C@H](NC(=O)COc1ccccc1-c1ccccc1)C(=O)N[C@@H](Cc1ccccc1)[C@H](O)CN1[C@H](C(F)(F)F)C[C@@H]2CCC[C@@H]21 [Beispiel 15] | 2,9 x 10^-8 Mol/l | IC50 (HIV-1-Protease [2]; [6]): 2.2 nM |
| Cc1c(O)cccc1C(=O)N[C@@H](CC(N)=O)C(=O)N[C@@H](Cc1ccccc1)[C@H](O)CN1[C@H](C(F)(F)F)C[C@@H]2CCC[C@@H]21 [Beispiel 16] | 2,7 x 10^-6 Mol/l | IC50 (HIV-1-Protease [2]; [6]): 200 nM |
| Cc1cnc(C)c(COC(=O)N[C@@H](CC(N)=O)C(=O)N[C@@H](Cc2ccccc2)[C@H](O)CN2[C@H](C(F)(F)F)C[C@@H]3CCC[C@@H]32)c1 [Beispiel 17] | 3,7 x 10^-5 Mol/l | IC50 (HIV-1-Protease [2]; [6]): 1900 nM |
